Results reported in patent publication US20100317524A1, “Sulfonylureas” (Bayer CropScience AG, priority 2005, published 2010).

Key:
[1] = test system: weed plants such as Sinapis alba, Chrysanthemum segetum, Avena sativa, Stellaria media, Echinochloa crus-galli, Lolium multiflorum, Setaria viridis, Abutilon …; assay: Pre-emergence effect on weeds (greenhouse pot test, visual scoring); type: in vivo; conditions: applied pre-emergence at a rate of 0.3 kg or less of active substance per hectare; visual scoring after 3 to 4 weeks vs untreated controls
Description: Seeds or sections of rhizome from monocot and dicot weed plants were laid out in sandy loam soil in cardboard pots, and covered with soil. The compounds of the invention, formulated as wettable powders or emulsifiable concentrates, were then applied, in the form of aqueous suspensions or emulsions, at various dosages, onto the surface of the covering earth, at an application rate of 600 to 800 l of water per hectare (converted). Following the treatment, the pots were placed in a greenhouse and maintained under good growth conditions for the weeds. Visual scoring of the plant damage or emergence damage was made when the test plants had emerged, after a test time of 3 to 4 weeks, in comparison to untreated controls.

[2] = test system: weed plants such as Sinapis alba, Echinochloa crus-galli, Lolium multiflorum, Chrysanthemum segetum, Setaria viridis, Abutilon theophrasti, Amaranthus …; assay: Post-emergence effect on weeds (greenhouse pot test, visual scoring); type: in vivo; conditions: applied post-emergence (three-leaf stage) at a rate of 0.3 kg or less of active substance per hectare; visual scoring after about 3 to 4 weeks vs untreated controls
Protocol: Seeds or sections of rhizome from monocot and dicot broadleaf weeds were laid out in sandy loam soil in plastic pots, covered with earth, and cultivated in a greenhouse under good growth conditions. Three weeks after sowing, the test plants were treated at the three-leaf stage. The compounds of the invention, formulated as wettable powders or as emulsion concentrates, were sprayed in different dosages onto the green parts of the plants, at an application rate of 600 to 800 l of water per hectare (converted). After the test plants had stood in the greenhouse under optimum growth conditions for a period of about 3 to 4 weeks, the effect of the products was scored visually in comparison to untreated controls.

Row | Structure (SMILES) | herbicidal action against weed plants, pre-emergence [1] | herbicidal action against weed plants, post-emergence [2]
1 | COc1nc(C)nc(NC(=O)NS(=O)(=O)c2c(I)cccc2OCC(F)(F)F)n1 [Compound 1.342] | very good herbicidal action | very good herbicidal action
2 | Cc1cc(C)nc(NC(=O)NS(=O)(=O)c2c(I)cccc2OS(=O)(=O)N(C)C)n1 [Compound 1.509] | very good herbicidal action | very good herbicidal action
3 | COc1cc(OC)nc(NC(=O)NS(=O)(=O)c2c(I)cccc2OCC2CC2)n1 [Compound 1.229] | very good herbicidal action | very good herbicidal action
4 | Cc1cc(C)nc(NC(=O)NS(=O)(=O)c2c(F)cccc2I)n1 [Compound 1.003] | very good herbicidal action | very good herbicidal action
5 | CCOc1cccc(I)c1S(=O)(=O)NC(=O)Nc1nc(C)nc(OC)n1 [Compound 1.165] | very good herbicidal action | very good herbicidal action
6 | CCCOc1cccc(I)c1S(=O)(=O)NC(=O)Nc1nc(OC)nc(OC)n1 [Compound 1.175] | very good herbicidal action | very good herbicidal action
7 | Cc1cc(C)nc(NC(=O)NS(=O)(=O)c2c(I)cccc2OC(F)F)n1 [Compound 1.329] | very good herbicidal action | very good herbicidal action
8 | COc1cccc(I)c1S(=O)(=O)NC(=O)Nc1nc(C)cc(C)n1 [Compound 1.154] | very good herbicidal action | very good herbicidal action
9 | CCC(C)Oc1cccc(I)c1S(=O)(=O)NC(=O)Nc1nc(C)nc(OC)n1 (centres unmarked) [Compound 1.557] | very good herbicidal action | very good herbicidal action
10 | COc1nc(C)nc(NC(=O)NS(=O)(=O)c2c(F)cccc2I)n1 [Compound 1.002] | very good herbicidal action | very good herbicidal action
11 | COc1cc(Cl)nc(NC(=O)NS(=O)(=O)c2c(I)cccc2OC(F)F)n1 [Compound 1.330] | very good herbicidal action | very good herbicidal action
12 | CCCCOc1cccc(I)c1S(=O)(=O)NC(=O)Nc1nc(OC)nc(OC)n1 [Compound 1.556] | very good herbicidal action | very good herbicidal action
13 | COc1ccc(Cl)c(I)c1S(=O)(=O)NC(=O)Nc1nc(C)cc(C)n1 [Compound 1.600] | very good herbicidal action | very good herbicidal action
14 | Cc1cc(C)nc(NC(=O)NS(=O)(=O)c2c(I)cccc2OCC(F)F)n1 [Compound 1.353] | very good herbicidal action | very good herbicidal action
15 | COc1cc(OC)nc(NC(=O)NS(=O)(=O)c2c(I)cccc2OS(C)(=O)=O)n1 [Compound 1.463] | very good herbicidal action | very good herbicidal action
16 | COc1nc(NC(=O)NS(=O)(=O)c2c(I)cccc2OC(C)C(F)(F)F)nc(OC)n1 (centres unmarked) [Compound 1.366] | very good herbicidal action | very good herbicidal action
17 | CCCCOc1cccc(I)c1S(=O)(=O)NC(=O)Nc1nc(OC)cc(OC)n1 [Compound 1.192] | very good herbicidal action | very good herbicidal action
18 | COc1cc(OC)nc(NC(=O)NS(=O)(=O)c2c(I)cccc2OC(F)F)n1 [Compound 1.321] | very good herbicidal action | very good herbicidal action
19 | COc1nc(C)nc(NC(=O)NS(=O)(=O)c2c(I)cccc2C(F)(F)F)n1 [Compound 1.095] | very good herbicidal action | very good herbicidal action
20 | CSc1cccc(I)c1S(=O)(=O)NC(=O)Nc1nc(C)cc(C)n1 [Compound 1.550] | very good herbicidal action | very good herbicidal action
21 | COc1nc(NC(=O)NS(=O)(=O)c2c(I)cccc2OS(C)(=O)=O)nc(OC)n1 [Compound 1.476] | very good herbicidal action | very good herbicidal action
22 | COc1cc(Cl)nc(NC(=O)NS(=O)(=O)c2c(I)cccc2OC(C)C(F)(F)F)n1 (centres unmarked) [Compound 1.365] | very good herbicidal action | very good herbicidal action
